Experimental data taken from patent publication US20060205642A1, “Oral methods of treatment using proANF peptides” (priority 2005, published 2006).
Entries after “also recorded” stand apart in the source; their conditions may differ.

Legend:
[1] = tested on: particulate guanylate cyclase; test: Particulate guanylate cyclase activity in the kidney; assay type: biochemical; details: 1 μM; whole kidney homogenates, renal cortical and medullary membranes, isolated distal nephrons
Experimental: Testing is also carried out to determine biologic effects of these peptides by measuring their effects on particulate guanylate activity in the kidney.

[2] = tested on: prostaglandin E2 (PGE2) synthesis; test: Prostaglandin E2 synthesis (FIG. 8); assay type: biochemical; details: n=6, ANOVA and Duncan's MRT
[3] = Infusion into healthy human subjects; assay type: in vivo; details: healthy humans; for potassium excretion: 100 ng/kg body wt
Experimental: Infusion of these peptides into healthy human subjects was performed as follows: Human pro-ANF 1-30, pro-ANF 31-67, and pro-ANF 79-98, and hANF (i.e., pro-ANF 99-126, were synthesized by Peninsula Laboratories (Belmont, Calif.). High pressure liquid chromatography (HPLC) analysis was performed on a sample of each of the four peptides to ensure purity. The peptides were dissolved in a sterile 0.9% saline solution to a concentration of 100 μg/ml and dispensed in 2 and 5 ml aliquots into sealed sterile vials. At the time of dispensing, randomly selected vials were tested for pyrogens and sterility. Prior to labeling the vials, the actual peptide content of the dispensed solution were determined by direct radioimmunoassay to account for any possible absorption of the respective peptides to the walls of the vials. All vials were then stored at −80° C. until thawed for individual study.
Normal healthy subjects were chosen on the basis of age (between 20 and 50 years), physical examination and biochemical screenings. The subjects consumed their normal diets prior to testing. The subjects fasted overnight and were tested in the morning in the seated position. Intravenous catheters were placed bilaterally for the administration of pro-hANF 1-30, pro-hANF 31-67, pro-hANF 79-98 and hANF (pro-hANF 99-126) and for blood sampling. After completion of a 45-minute equilibration period, there were three […] phases of the study: baseline, experimental infusion (60 minutes) and recovery (3 hours). The baseline phase consisted of two 30 minute urine collection periods, the experimental phase consisted of three 20 minute urine and plasma collection periods, and the recovery phase consisted of two 30 minute urine and plasma collection periods each hour for three hours post-infusion. Urine output was replaced on a milliliter per milliliter basis throughout the study by administering oral water or orange juice. Urine samples were obtained by voiding at the designated collection periods.
The 36 subjects were divided into 6 groups. One group (i.e., the control group) received a placebo infusion of 0.9% sodium chloride during the experimental infusion phase. […] The four remaining groups of six subjects each received human pro-hANF 1-30, pro-hANF 31-67, pro-hANF 79-98 and HANF. The four groups received the peptides by continuous infusion at the rate of 0.1 μg/kg per minute. The volume administered per hour during the experimental infusion phase was 10 ml for all four peptides and the placebo. All infusions were given by a constant-rate infusion pump, with the final concentrations of prohANFs adjusted for the subjects' body weight. The subjects heart rate and cuff blood pressure were taken at 5 minute intervals throughout the study. The excreted urine was analyzed for sodium concentration.

[4] = Infusion into human subjects with Class III NYHA congestive heart failure; assay type: in vivo, humans
Experimental: Human proANF's 1-30, 31-67, 79-98, and 99-126 (i.e., ANF) were infused into human subjects with Class III New York Heart Association congestive heart failure (CHF). An identical protocol to that used in example V where these peptides were infused into healthy human subjects was utilized. (See Attachment C and F for a detailed description of this protocol). The human subjects with congestive heart failure received an identical dose (0.1 μg/kg body wt/minute for 60 minutes) that the healthy human subjects received. […] This striking urine output secondary to proANF 31-67 was significant at P<0.0001 compared to the pre-infusion output of the congestive heart failure subjects (n=6).

[5] = tested on: renal medullary Na+-K+-ATPase; test: Inhibition of renal medullary Na+-K+-ATPase activity (FIG. 9); assay type: biochemical; details: 10^-11 M, n=6, ANOVA
Text: FIG. 9. Inhibition of renal medullary Na+-K+-ATPase activity by proANF 79-98 (kaliuretic peptide), proANF 1-30 (long acting natriuretic peptide), proANF 31-67 (vessel dilator), and angiotensin II at their […] concentrations.

porcine aortas = test: Vasodilation of porcine aortic strips preconstricted with 0.3 micromolar phenylephrine
Experimental: 30 Kg pigs are sacrificed, and aortic strips are harvested. The strips are attached to F-60 transducer (Narco-BioSystems, Houston, Tex.) and attached to a physiography (Narco-BioSystems) while being submerged in a muscle tissue bath comprising a Krebs Ringer solution at 37° C., with 95% O2-5% CO2, bubbled through the bath. Percentage vasodilation is measured versus time after preconstriction with 0.3 micromolar phenylephrine. […] (Vesely et al., Biochem. Biophys. Res. Commun. 148:1540-1548, 1987).

[6] = tested on: particulate guanylate cyclase; test: Cyclic GMP / particulate guanylate cyclase activation in cultured smooth muscle cells and porcine aorta; assay type: cell-based
[7] = Rat clearance model (diuresis and salt excretion); assay type: in vivo, Munich-Wistar rats; details: for FENa, fractional excretion of sodium / UNa, urinary sodium / UNaV, urinary sodium excretion rate / V, urine flow rate: means ± SE
Experimental: The same three peptides and ANF from Example I are tested using the rat clearance model. Six control rats and six experimental Munich-Wistar rats, each weighing 150-200 grams, are used for each peptide, with catheters being placed in both jugular veins and in the femoral artery. The ureters are cannulated for simultaneous urine collections with femoral artery blood collections.
After inserting the catheters, a stabilization of one hour is allowed. A 10 μg/kg bolus of each of the respective human sequences of the peptides is given via the jugular vein to six experimental rats followed by a sustaining infusion of 0.1 μg/kg/min for 60 minutes. Blood and urine samples are collected at 20 minute intervals during this 60 minute infusion. In both the control and experimental animals, hematocrits and plasma sodium values remained at the same levels pre- and post-infusion while blood pressure decreased with each of these peptides (see Attachment B).

[8] = A, control period (before peptide)
[9] = B, first 60-minute experiment period, 10 μg/kg bolus then 0.1 μg/kg/min
[10] = C, second 60-minute experimental period

Substance: H-SSDRSALLKSKLRALLTAPR-OH [proANF 79-98]
- particulate guanylate cyclase activity [1]: enhance
- prostaglandin E2 (PGE2) synthesis [2]: increase prostaglandin E2 (PGE2) synthesis
- potassium excretion [3]: significant (P<0.05)
- increase in urine volume (in words) ([3]; 100 ng/kg body wt per minute for 1 hour i.v., n=6, ANOVA): significant
- sodium excretion (in words) ([3]; 100 ng/kg body wt per minute for 60 minutes, vs baseline, listed as ProANF 79-98): does not have natriuretic effects in healthy humans
- systolic and diastolic blood pressures ([3]; 100 ng/kg body wt per minute i.v. for 60 min, n=6): significant
- potassium excretion ([3]; listed as ProANF 79-98): strongest stimulator of potassium excretion of any of the atrial peptides; also recorded: significant (P<0.01) enhancer of potassium excretion
- increase in urine flow ([3]; infusion): 2 fold
- hypotension ([4]; CHF patients): None became hypotensive
- enhancement of sodium excretion ([4]; CHF subjects, 100 ng/kg body weight/min for 60 minutes): 3 fold
- increase of urine flow (maximal) ([4]; NYHA class III CHF, 100 ng/kg body weight/min i.v. for 60 minutes, P<0.001): 4 fold
- effects in persons with CHF compared to healthy individuals ([4]; diuretic and natriuretic effects): not blunted in persons with CHF but rather are increased compared to healthy individuals
- inhibition of renal medullary Na+-K+-ATPase activity [5]: significant at P<0.01
- increase in cyclic GMP levels over baseline levels associated with vasodilation (porcine aortas): four-to-five fold
- cyclic GMP levels in cultured smooth muscle cells ([6]; cultured smooth muscle cells): increase cyclic GMP levels
- concentration of maximal activation of guanylate cyclase activity ([6]; porcine aorta and isolated smooth muscle cells): about 1 μM
- EC50 ([6]; porcine aorta and isolated smooth muscle cells, read-out: half maximal activation (ED5o) of guanylate cyclase): ~10 nM
- FENa, fractional excretion of sodium [7, 8]: 0.030 ± 0.024%
- UNa, urinary sodium [7, 8]: 42.27 ± 24.68 meq/1
- UNaV, urinary sodium excretion rate [7, 8]: 90.88 ± 77.76 μeq · min^−1 · g kidney wt^−1
- V, urine flow rate [7, 8]: 2.62 ± 0.70 μl · min^−1 · g kidney wt^−1
- V, urine flow rate ([7]; B, first 60-minute experiment period, 10 μg/kg bolus then 0.1 μg/kg/min via jugular vein): 4.75 ± 1.57 μl · min^−1 · g kidney wt^−1
- FENa, fractional excretion of sodium [7, 9]: 0.200 ± 0.152%
- UNa, urinary sodium [7, 9]: 63.30 ± 22.11 meq/1
- UNaV, urinary sodium excretion rate [7, 9]: 363.98 ± 261.85 μeq · min^−1 · g kidney wt^−1
- V, urine flow rate ([7]; C, second 60-minute experimental period, 10 μg/kg bolus then 0.1 μg/kg/min): 5.16 ± 1.04 μl · min^−1 · g kidney wt^−1
- FENa, fractional excretion of sodium [7, 10]: 0.368 ± 0.273%
- UNa, urinary sodium [7, 10]: 92.53 ± 29.17 meq/1
- UNaV, urinary sodium excretion rate [7, 10]: 564.22 ± 315.48 μeq · min^−1 · g kidney wt^−1
- potassium excretion ([7]; rat clearance model): very significant stimulator of potassium excretion
- sodium excretion (in words) ([7]; rat clearance model): does not significantly increase sodium excretion
